Tests used:
[1] = test system: transcriptional activity of hTERT; assay: SEAP reporter assay of hTERT expression, PhTERT-SEAP (H1299); format: cell-based, human; details: PhTERT-SEAP(hTERT-H1299)
Experimental: (§1) Secreted alkaine phosphatase was used as the reporter system to monitor the transcriptional activity of hTERT. Here, about […] each were grown in 96-well plates and incubated at 37° C. for 24 h and changed with fresh media. Varying amounts of drugs were added and cells were incubated for another 24 h. Culture media were collected and heated at 65° C. for 10 min to inactivate heat-labile phosphatases. An equal amount of SEAP buffer (2 M diethanolamine, 1 mM MgCl2, and 20 mM […]) was added to the media and p-nitrophenyl phosphate was added to a final concentration of 12 mM. Absorptions at 405 nm were taken, and the rate of absorption increase is determined.
(§2) Culture media were changed every 3 days. […] The stable clones were selected using G418.

[2] = test system: hepatitis B virus transfected hepatoma cell lines, HepG 2.2.15 cells; assay: Cytotoxicity assay, 2.2.15 cells; format: cell-based, human; details: 48 h of drug exposure
[3] = test system: transcriptional activity of hTERT; assay: SEAP reporter assay of hTERT expression, PhTERT-SEAP (hTERT-BJ1); format: cell-based, human; details: PhTERT-SEAP (hTERT-BJ1)
Experimental: as §1, §2

human hepatoma G2 cells = assay: Cytotoxicity assay (XTT colorimetric), Hep G2; format: cell-based; details: 48 h of drug exposure
hTERT-BJ1 cells = assay: MTT relative viability, PhTERT-SEAP (hTERT-BJ1) cells; details: PhTERT-SEAP (hTERT-BJ1)
[4] = test system: non-small-cell lung cancer cells H1299; assay: MTT relative viability, PhTERT-SEAP (H1299) cells; details: PhTERT-SEAP(hTERT-H1299)
rat glioma C6 cells = assay: Cytotoxicity assay (XTT colorimetric), C6 cells; format: cell-based; details: 48 h of drug exposure
[5] = MTT relative viability, PhTERT-SEAP (hTERT-BJ1) cells; details: human, hTERT-BJ1 cells, stable PhTERT-SEAP reporter clone
[6] = MTT relative viability, PhTERT-SEAP (H1299) cells; details: human

## 1,4-Bis(2,5-trifluorobenzoylamido)-9,10-anthracenedione [VI29]
[1]; 1.3 μM
  Relative SEAP activity (%): 106 ± 6.7%
  SEAP/vibility: 1.07
[1]; 13 μM
  Relative SEAP activity (%): 105 ± 7.9%
  SEAP/vibility: 1.32
[1]; 139 μM
  Relative SEAP activity (%): 94 ± 10.2%
  SEAP/vibility: 2.56
[2]
  IC50: 2.2 µM
[3]; 1.3 μM
  Relative SEAP activity (%): 16 ± 31.8%
  SEAP/vibility: 0.15
[3]; 13 μM
  Relative SEAP activity (%): 24 ± 21.5%
  SEAP/vibility: 0.28
[3]; 139 μM
  Relative SEAP activity (%): 26 ± 36.9%
  SEAP/vibility: 0.47
Human hepatoma G2 cells
  IC50: > 20 µM
hTERT-BJ1 cells; 1.3 μM
  Relative MTT viability (%): 107 ± 6.4%
hTERT-BJ1 cells; 13 μM
  Relative MTT viability (%): 85 ± 4.8%
hTERT-BJ1 cells; 139 μM
  Relative MTT viability (%): 56 ± 4.6%
[4]; 1.3 μM
  Relative MTT viability (%): 99 ± 8.6%
[4]; 13 μM
  Relative MTT viability (%): 79 ± 10.3%
[4]; 139 μM
  Relative MTT viability (%): 37 ± 8.8%
Rat glioma C6 cells
  IC50: 2.82 µM

## 1,4-Bis[3-(aminomethyl)cyclopropanepropionamido]-9,10-anthracenedione [VI37]
[1]; 2.0 μM
  Relative SEAP activity (%): 95 ± 4.2%
  SEAP/vibility: 0.88
[1]; 20 μM
  Relative SEAP activity (%): 91 ± 8.9%
  SEAP/vibility: 1.09
[1]; 204 μM
  Relative SEAP activity (%): 52 ± 4.4%
  SEAP/vibility: 0.77
[2]
  IC50: 1.71 µM
[3]; 2.0 μM
  Relative SEAP activity (%): 97 ± 13.8%
  SEAP/vibility: 1.02
[3]; 20 μM
  Relative SEAP activity (%): 124 ± 22.8%
  SEAP/vibility: 1.48
[3]; 204 μM
  Relative SEAP activity (%): 105 ± 17.7%
  SEAP/vibility: 3.01
Human hepatoma G2 cells
  IC50: 0.32 µM
hTERT-BJ1 cells; 2.0 μM
  Relative MTT viability (%): 95 ± 2.5%
hTERT-BJ1 cells; 20 μM
  Relative MTT viability (%): 84 ± 1.5%
hTERT-BJ1 cells; 204 μM
  Relative MTT viability (%): 35 ± 3.7%
[4]; 2.0 μM
  Relative MTT viability (%): 108 ± 7.8%
[4]; 20 μM
  Relative MTT viability (%): 83 ± 1.6%
[4]; 204 μM
  Relative MTT viability (%): 67 ± 9.8%
Rat glioma C6 cells
  IC50: 0.4 µM

## O=C(Nc1ccc(NC(=O)c2ccccc2Cl)c2c1C(=O)c1ccccc1C2=O)c1ccccc1Cl [VI2, 1,4-Bis(2-chlorobenzoylamido)-9,10-anthracenedione]
[1]; 1.9 μM
  Relative SEAP activity (%): 108 ± 10.5%
  SEAP/vibility: 0.94
[1]; 19 μM
  Relative SEAP activity (%): 105 ± 7.7%
  SEAP/vibility: 1.47
[1]; 194 μM
  Relative SEAP activity (%): 100 ± 8.9%
  SEAP/vibility: 1.68
[2]
  IC50: > 20 µM
[3]; 1.9 μM
  Relative SEAP activity (%): 110 ± 20.1%
  SEAP/vibility: 0.95
[3]; 19 μM
  Relative SEAP activity (%): 96 ± 33.4%
  SEAP/vibility: 0.88
[3]; 194 μM
  Relative SEAP activity (%): 95 ± 36.6%
  SEAP/vibility: 1.00
Human hepatoma G2 cells
  IC50: > 20 µM
hTERT-BJ1 cells; 1.9 μM
  Relative MTT viability (%): 116 ± 7.7%
hTERT-BJ1 cells; 19 μM
  Relative MTT viability (%): 109 ± 2.2%
hTERT-BJ1 cells; 194 μM
  Relative MTT viability (%): 95 ± 2.0%
[4]; 1.9 μM
  Relative MTT viability (%): 114 ± 5.4%
[4]; 19 μM
  Relative MTT viability (%): 72 ± 3.6%
[4]; 194 μM
  Relative MTT viability (%): 60 ± 7.9%
Rat glioma C6 cells
  IC50: > 20 µM

## O=C(Nc1ccc(NC(=O)c2ccccc2)c2c1C(=O)c1ccccc1C2=O)c1ccccc1 [VI4, 1,4-Bisbenzoylamido-9,10-anthracenedione]
[1]; 2.2 μM
  Relative SEAP activity (%): 81 ± 3.3%
  SEAP/vibility: 0.74
[1]; 22 μM
  Relative SEAP activity (%): 84 ± 2.6%
  SEAP/vibility: 0.96
[1]; 224 μM
  Relative SEAP activity (%): 80 ± 2.7%
  SEAP/vibility: 2.99
[2]
  IC50: > 20 µM
[3]; 2.2 μM
  Relative SEAP activity (%): (−4) ± 25.7^ %
  SEAP/vibility: −0.04
[3]; 22 μM
  Relative SEAP activity (%): (−10) ± 26.8 ^ %
  SEAP/vibility: −0.14
[3]; 224 μM
  Relative SEAP activity (%): (−41) ± 26.8 ^ %
  SEAP/vibility: −1.10
Human hepatoma G2 cells
  IC50: > 20 µM
hTERT-BJ1 cells; 2.2 μM
  Relative MTT viability (%): 95 ± 4.9%
hTERT-BJ1 cells; 22 μM
  Relative MTT viability (%): 69 ± 3.2%
hTERT-BJ1 cells; 224 μM
  Relative MTT viability (%): 38 ± 2.6%
[4]; 2.2 μM
  Relative MTT viability (%): 109 ± 6.0%
[4]; 22 μM
  Relative MTT viability (%): 88 ± 6.2%
[4]; 224 μM
  Relative MTT viability (%): 27 ± 1.8%
Rat glioma C6 cells
  IC50: > 20 µM

## O=C(Nc1ccc(NC(=O)c2cccc(Cl)c2)c2c1C(=O)c1ccccc1C2=O)c1cccc(Cl)c1 [VI5, 1,4-Bis(3-chlorobenzoylamido)-9,10-anthracenedione]
[1]; 1.9 μM
  Relative SEAP activity (%): 110 ± 4.9%
  SEAP/vibility: 1.17
[1]; 19 μM
  Relative SEAP activity (%): 112 ± 6.1%
  SEAP/vibility: 1.10
[1]; 194 μM
  Relative SEAP activity (%): 91 ± 3.0%
  SEAP/vibility: 1.55
[2]
  IC50: > 20 µM
[3]; 1.9 μM
  Relative SEAP activity (%): 98 ± 10.1%
  SEAP/vibility: 0.99
[3]; 19 μM
  Relative SEAP activity (%): 105 ± 8.8%
  SEAP/vibility: 1.17
[3]; 194 μM
  Relative SEAP activity (%): 89 ± 10.1%
  SEAP/vibility: 1.48
Human hepatoma G2 cells
  IC50: > 20 µM
hTERT-BJ1 cells; 1.9 μM
  Relative MTT viability (%): 99 ± 9.8%
hTERT-BJ1 cells; 19 μM
  Relative MTT viability (%): 90 ± 1.9%
hTERT-BJ1 cells; 194 μM
  Relative MTT viability (%): 60 ± 2.0%
[4]; 1.9 μM
  Relative MTT viability (%): 95 ± 11.3%
[4]; 19 μM
  Relative MTT viability (%): 102 ± 8.5%
[4]; 194 μM
  Relative MTT viability (%): 59 ± 4.3%
Rat glioma C6 cells
  IC50: > 20 µM

## Cc1cccc(C(=O)Nc2ccc(NC(=O)c3cccc(C)c3)c3c2C(=O)c2ccccc2C3=O)c1 [VI6, 1,4-Bis(3-methylbenzoylamido)-9,10-anthracenedione]
[1]; 2.1 μM
  Relative SEAP activity (%): 107 ± 4.6%
  SEAP/vibility: 1.06
[1]; 21 μM
  Relative SEAP activity (%): 104 ± 4.0%
  SEAP/vibility: 1.08
[1]; 210 μM
  Relative SEAP activity (%): 99 ± 9.1%
  SEAP/vibility: 1.20
[2]
  IC50: > 20 µM
[3]; 2.1 μM
  Relative SEAP activity (%): 97 ± 17.1%
  SEAP/vibility: 0.88
[3]; 21 μM
  Relative SEAP activity (%): 78 ± 7.1%
  SEAP/vibility: 0.71
[3]; 210 μM
  Relative SEAP activity (%): 70 ± 5.8%
  SEAP/vibility: 0.69
Human hepatoma G2 cells
  IC50: > 20 µM
hTERT-BJ1 cells; 2.1 μM
  Relative MTT viability (%): 110 ± 2.6%
hTERT-BJ1 cells; 21 μM
  Relative MTT viability (%): 109 ± 4.6%
hTERT-BJ1 cells; 210 μM
  Relative MTT viability (%): 101 ± 6.0%
[4]; 2.1 μM
  Relative MTT viability (%): 101 ± 5.6%
[4]; 21 μM
  Relative MTT viability (%): 97 ± 6.2%
[4]; 210 μM
  Relative MTT viability (%): 83 ± 7.8%
Rat glioma C6 cells
  IC50: > 20 µM

## CCN(CC)CCC(=O)Nc1ccc(NC(=O)CCN(CC)CC)c2c1C(=O)c1ccccc1C2=O [VI34, 1,4-Bis[3-(diethylamino)propionamido]-9,10-anthracenedione]
[1]; 2.0 μM
  SEAP/vibility: 0.79
[1]; 20 μM
  SEAP/vibility: 4.63
[1]; 203 μM
  SEAP/vibility: 44.24
[1]; Homo sapiens, NCI-H1299, 2.0 μM, read-out: Relative SEAP activity (%)
  activity at 2 µM: 73 ± 2.7%
[1]; Homo sapiens, NCI-H1299, 20 μM, read-out: Relative SEAP activity (%)
  activity at 20 µM: 53 ± 2.7%
[1]; Homo sapiens, NCI-H1299, 203 μM, read-out: Relative SEAP activity (%)
  activity at 203 µM: 39 ± 0.8%
[2]; Homo sapiens, HepG2.2.15
  IC50: 0.28 µM
[3]; 2.0 μM
  SEAP/vibility: 0.03
[3]; 20 μM
  SEAP/vibility: −0.13
[3]; 203 μM
  SEAP/vibility: −0.37
[3]; Homo sapiens, 2.0 μM, read-out: Relative SEAP activity (%)
  activity at 2 µM: 2 ± 11.1%
[3]; Homo sapiens, 20 μM, read-out: Relative SEAP activity (%)
  activity at 20 µM: -2%
[3]; Homo sapiens, 203 μM, read-out: Relative SEAP activity (%)
  activity at 203 µM: -2%
Human hepatoma G2 cells; Homo sapiens, HepG2
  IC50: 0.49 µM
[5]
  viability at 48 h, 2 µM: 83 ± 9.2%
  viability at 48 h, 20 µM: 15 ± 3.9%
  viability at 48 h, 203 µM: 6 ± 3.9%
[6]
  viability at 48 h, 2 µM: 92 ± 6.1%
  viability at 48 h, 20 µM: 11 ± 2.5%
  viability at 48 h, 203 µM: 1 ± 2.4%
Rat glioma C6 cells; Rattus norvegicus, C6
  IC50: 0.9 µM

Source: patent US20050009924A1 (priority 2003, published 2005)
